{"source": "patent US20060084789A1", "about": "“Immunotherapeutic and immunoprphylactic reagents” (priority 2002, published 2006)", "test_system": "RGP-specific TCL", "experiment": "TCL proliferation assay (3H-thymidine incorporation, stimulation index)", "format": "cell-based, human", "settings": "for Proliferative response, stimulation index: peptides 10 μg/ml; for Lol p 1 peptides recognised by one or more TCL: 34 TCL tested, all recognised with the exception of the four named", "protocol": "Generation of Short-Term RGP-Specific TCL\nPBMC were cultured in 24-well plates (Costar, Mass., USA) at 2.5×10^6 cells/well with RGP extract at a concentration of 25 or 50 μg/ml in RPMI 1640 medium (Gibco BRL, NY, USA) supplemented with 2 mM GlutaMAX I (Gibco BRL), 0.05 mg/ml gentamicin (David Bull Laboratories, Mulgrave, Victoria, Australia) and 5% heat-inactivated hunan AB^+ serum (Sigma, Mo., USA) for 7 days at 37° C. in a 5% CO2 humidified incubator. At day 7, cells were washed once and restimulated in 24-well plates at 5×10^5 cells/well width 25 or 50 μg/ml of RGP extract in the presence of 5×10^5 cells/well irradiated (3000 rads) autologous PBMC as a source of antigen presenting cells (APC). At day 2 following restimulation, 10 U/ml of Lymphocult T-LF (LC; Biotest, Germany) was added as a source of IL-2 and at day 4, 1 ml of culture medium was removed and replaced with fresh medium and 10 U/ml of LC. […] In all experiments T cells were rested for 6 to 7 days after the last addition of antigen and APC before testing.\nT cells (5×10^4/well) were cultured in 96-well U bottom plates with either RGP extract at concentrations ranging from 25 to 200 μg/ml, purified Lol p 1 (0.12 to 2 μg/ml) or Lol p 5 (0.1 to 10 μg/ml), or Lol p 1 or Lol p 5 peptides (10 μg/ml), or medium alone (to determine background levels of proliferation), in the presence of washed autologous irradiated (3000 rads) PBMC (5×10^4/well). […] Cultures were incubated for 3 days, pulsed for the last 16 hours with ^3H-thymidine (1 μCi/well) and harvested onto glass fibre filters. ^3H-thymidine incorporation was measured by liquid scintillation spectroscopy and the mean counts per minute (cpm) for triplicate cultures was determined. Responses were considered positive if the stimulation index (SI, cpm of antigen-stimulated T cells divided by cpm of unstimulated T cells) was ≧2.5. Where several concentrations of allergen were tested (i.e., RGP, Lol p 1 and Lol p 5), values corresponding to the highest proliferation are shown.", "key": {"[1]": {"settings": "Subject 4 TCL, Lol p 5 series (Table 4), RGP and Lol p 5 maximal response"}, "[2]": {"settings": "Subject 7 TCL, Lol p 5 series (Table 4), RGP and Lol p 5 maximal response"}, "[3]": {"settings": "Subject 2 TCL, Lol p 1 series (Table 3), RGP and Lol p 1 maximal response"}, "[4]": {"settings": "Subject 4 TCL, Lol p 1 series (Table 3), RGP and Lol p 1 maximal response"}, "[5]": {"settings": "Subject 11 TCL, Lol p 1 series (Table 3), RGP and Lol p 1 maximal response"}, "[6]": {"settings": "Subject 12 TCL, Lol p 1 series (Table 3), RGP and Lol p 1 maximal response"}, "[7]": {"settings": "Subject 3 TCL, Lol p 1 series (Table 3), RGP and Lol p 1 maximal response"}}}
{"substance": "AFSESSKGLLATSAAKAPGL (Lolium perenne) [Lol p 5 peptide 64-83]", "values": [{"measurement": "Proliferative response, stimulation index", "setting": "[1]", "result": 2.8}, {"measurement": "Proliferative response, stimulation index", "setting": "[2]", "result": 2.8}]}
{"substance": "AGELELQFRRVKCKYPDDTK (Lolium perenne) [Lol p 1 peptide 127-146]", "values": [{"measurement": "Proliferative response, stimulation index", "setting": "[3]", "result": 5.8}, {"measurement": "Proliferative response, stimulation index", "setting": "Subject 13 TCL, Lol p 1 series (Table 3), RGP and Lol p 1 maximal response", "result": 3.7}, {"measurement": "Proliferative response, stimulation index", "setting": "Subject 17 TCL, Lol p 1 series (Table 3), RGP and Lol p 1 maximal response", "result": 3.0}]}
{"substance": "FEIKCTKPESCSGEAVTVTI (Lolium perenne) [Lol p 1 peptide 73-92]", "values": [{"measurement": "Proliferative response, stimulation index", "setting": "Subject 1 TCL, Lol p 1 series (Table 3), RGP and Lol p 1 maximal response", "result": 3.9}, {"measurement": "Proliferative response, stimulation index", "setting": "[4]", "result": 2.9}, {"measurement": "Proliferative response, stimulation index", "setting": "[5]", "result": 2.6}]}
{"substance": "KFTVFESAFNKALNECTGGA (Lolium perenne) [Lol p 5 peptide 172-191]", "values": [{"measurement": "Proliferative response, stimulation index", "setting": "[1]", "result": 2.7}, {"measurement": "Proliferative response, stimulation index", "setting": "Subject 12 TCL, Lol p 5 series (Table 4), RGP and Lol p 5 maximal response", "result": 2.5}, {"measurement": "Proliferative response, stimulation index", "setting": "Subject 20 TCL, Lol p 5 series (Table 4), RGP and Lol p 5 maximal response", "result": 3.0}]}
{"substance": "Lol p 1 peptide 46-65: synthetic 20-mer, amino acids 46-65 of Lol p 1A (SEQ ID NO:1) (VDKAPFNGMTGCGNTPIFKD; Lolium perenne)", "values": [{"measurement": "Proliferative response, stimulation index", "setting": "Subject 5 TCL, Lol p 1 series (Table 3), RGP and Lol p 1 maximal response", "result": 8.4}, {"measurement": "Proliferative response, stimulation index", "setting": "[6]", "result": 4.0}]}
{"substance": "Lol p 1 peptide 55-74: synthetic 20-mer, amino acids 55-74 of Lol p 1A (SEQ ID NO:1) (TGCGNTPIFKDGRGCGSCFE; Lolium perenne)", "values": [{"measurement": "Lol p 1 peptides recognised by one or more TCL", "result": "exception"}]}
{"substance": "Lol p 1 peptide 82-101: synthetic 20-mer, amino acids 82-101 of Lol p 1A (SEQ ID NO:1) (SCSGEAVTVTITDDNEEPIA; Lolium perenne)", "values": [{"measurement": "Proliferative response, stimulation index", "setting": "[7]", "result": 3.6}, {"measurement": "Proliferative response, stimulation index", "setting": "[5]", "result": 3.6}]}
{"substance": "Lol p 1 peptide 91-110: synthetic 20-mer, amino acids 91-110 of Lol p 1A (SEQ ID NO:1)", "values": [{"measurement": "Proliferative response, stimulation index", "setting": "[4]", "result": 3.6}, {"measurement": "Proliferative response, stimulation index", "setting": "[5]", "result": 4.9}]}
{"substance": "Lol p 1 peptide 118-137: synthetic 20-mer, amino acids 118-137 of Lol p 1A (SEQ ID NO:1) (KGEEQKLRASAGELELQFRR; Lolium perenne)", "values": [{"measurement": "Proliferative response, stimulation index", "setting": "[3]", "result": 6.2}, {"measurement": "Proliferative response, stimulation index", "setting": "[6]", "result": 2.5}]}
{"substance": "Lol p 1 peptide 145-164: synthetic 20-mer, amino acids 145-164 of Lol p 1A (SEQ ID NO:1) (GTKPTFHVEKASNPNYLAIL; Lolium perenne)", "values": [{"measurement": "Proliferative response, stimulation index", "setting": "[6]", "result": 4.5}]}
{"substance": "Lol p 1 peptide 163-182: synthetic 20-mer, amino acids 163-182 of Lol p 1A (SEQ ID NO:1) (ILVKYVDGDGDVVAVDIKEK; Lolium perenne)", "values": [{"measurement": "Lol p 1 peptides recognised by one or more TCL", "result": "exception"}, {"measurement": "Proliferative response, stimulation index", "setting": "Subject 23 TCL, Lol p 1 series (Table 3), RGP and Lol p 1 maximal response", "result": 4.2}]}
{"substance": "Lol p 1 peptide 172-191: synthetic 20-mer, amino acids 172-191 of Lol p 1A (SEQ ID NO:1) (GDVVAVDIKEKGKDKWIELK; Lolium perenne)", "values": [{"measurement": "Proliferative response, stimulation index", "setting": "Subject 9 TCL, Lol p 1 series (Table 3), RGP and Lol p 1 maximal response", "result": 2.5}]}
{"substance": "Lol p 1 peptide 199-218: synthetic 20-mer, amino acids 199-218 of Lol p 1A (SEQ ID NO:1) (RIDTPDKLTGPFTVRYTTEG; Lolium perenne)", "values": [{"measurement": "Lol p 1 peptides recognised by one or more TCL", "result": "exception"}]}
{"substance": "Lol p 1 peptide 208-227: synthetic 20-mer, amino acids 208-227 of Lol p 1A (SEQ ID NO:1) (GPFTVRYTTEGGTKSEVEDV; Lolium perenne)", "values": [{"measurement": "Lol p 1 peptides recognised by one or more TCL", "result": "exception"}, {"measurement": "Proliferative response, stimulation index", "setting": "[7]", "result": 4.4}]}
{"substance": "Lol p 1 peptide 217-236: synthetic 20-mer, amino acids 217-236 of Lol p 1A (SEQ ID NO:1) (EGGTKSEVEDVIPEGWKADT; Lolium perenne)", "values": [{"measurement": "Proliferative response, stimulation index", "setting": "[7]", "result": 3.3}, {"measurement": "Proliferative response, stimulation index", "setting": "[5]", "result": 4.4}]}
{"substance": "Lol p 1 peptide 221-240: synthetic 20-mer, amino acids 221-240 of Lol p 1A (SEQ ID NO:1) (KSEVEDVIPEGWKADTSYSA; Lolium perenne)", "values": [{"measurement": "Proliferative response, stimulation index", "setting": "[5]", "result": 3.3}]}
{"substance": "Lol p 5 peptide 73-92: synthetic 20-mer, amino acids 73-92 of Lol p 5A (SEQ ID NO:2) (LATSAAKAPGLIPKLDTAYD; Lolium perenne)", "values": [{"measurement": "Proliferative response, stimulation index", "setting": "[2]", "result": 2.6}]}
